Literature values, collected in PubChem BioAssay AID1259409 (Chemical Carcinogenesis Research Information System (CCRIS), 2018).

Test system: rodent chemically induced tumor inhibition, incidence and multiplicity
Assay: CCRIS tumor inhibitor studies
Conditions: Carcinogen: 7,12-DIMETHYLBENZ[A]ANTHRACENE, 57-97-6, Dose [Inhibitor]: 0, Route [Inhibitor]: ORAL, Species: FISH, FEMALE, Promoter: NONE USED

O=c1oc2c(O)c(O)cc3c(=O)oc4c(O)c(O)cc1c4c23
tumour outcome (control, treated, inhibition, significance) (1000 PPM IN DIET FOR 17 WK BEGINNING POST CARCINOGEN TREATMENT (STUDY DURATION: 42 WK), Strain/Sex: RAINBOW TROUT/ MALE, Target Tissue: Type of Lesion: SWIM BLADDER: TUMOR, Dose [Carcinogen]: 5.5 PPM IN WATER FOR 1 HR): 15%, 6%, 60%, p<0.05 | tumour outcome (control, treated, inhibition, significance) (1000 PPM IN DIET FOR 17 WK BEGINNING POST CARCINOGEN TREATMENT (STUDY DURATION: 42 WK), Strain/Sex: RAINBOW TROUT/MALE, Target Tissue: Type of Lesion: LIVER: TUMOR, Dose [Carcinogen]: 5.5 PPM IN WATER FOR 1 HR): 5%, 11%, -120%, p<0.05 | tumour outcome (control, treated, inhibition, significance) (1000 PPM IN DIET FOR DURATION OF STUDY BEGINNING CONCURRENTLY WITH CARCINOGEN TREATMENT (STUDY DURATION: 42 WK), Strain/Sex: RAINBOW TROUT/ MALE, Target Tissue: Type of Lesion: STOMACH: TUMOR, Dose [Carcinogen]: 750 PPM IN DIET FOR 7 WK): 85%, 78%, 8%, p<0.05 | tumour outcome (control, treated, inhibition, significance) (1000 PPM IN DIET FOR DURATION OF STUDY BEGINNING CONCURRENTLY WITH CARCINOGEN TREATMENT (STUDY DURATION: 42 WK), Strain/Sex: RAINBOW TROUT/ MALE, Target Tissue: Type of Lesion: SWIM BLADDER: TUMOR, Dose [Carcinogen]: 750 PPM IN DIET FOR 7 WK): 1%, 1%, 0%, not significant | tumour outcome (control, treated, inhibition, significance) (1000 PPM IN DIET FROM 3 WK PRIOR TO CARCINOGEN TREATMENT TO 3 D POST CARCINOGEN TREATMENT (STUDY DURATION: 42 WK), Strain/Sex: RAINBOW TROUT/MALE, Target Tissue: Type of Lesion: LIVER: TUMOR, Dose [Carcinogen]: 4.16 PPM IN WATER FOR 1 HR): 7%, 16%, -129%, p<0.001 | tumour outcome (control, treated, inhibition, significance) (1000 PPM IN DIET FROM 3 WK PRIOR TO CARCINOGEN TREATMENT TO 3D POST CARCINOGEN TREATMENT (STUDY DURATION: 42 WK), Strain/Sex: RAINBOW TROUT/MALE, Target Tissue: Type of Lesion: STOMACH: TUMOR, Dose [Carcinogen]: 4.16 PPM IN WATER FOR 1 HR): 97%, 92%, 5%, not significant | tumour outcome (control, treated, inhibition, significance) (1000 PPM IN DIET FROM 3 WK PRIOR TO CARCINOGEN TREATMENT TO 3 D POST CARCINOGEN TREATMENT (STUDY DURATION: 42 WK), Strain/Sex: RAINBOW TROUT/MALE, Target Tissue: Type of Lesion: SWIM BLADDER: TUMOR, Dose [Carcinogen]: 4.16 PPM IN WATER FOR 1 HR): 14%, 50%, -257%, p<0.001 | tumour outcome (control, treated, inhibition, significance) (2000 PPM IN DIET FOR 17 WK BEGINNING POST CARCINOGEN TREATMENT (STUDY DURATION: 42 WK), Strain/Sex: RAINBOW TROUT/ MALE, Target Tissue: Type of Lesion: STOMACH: TUMOR, Dose [Carcinogen]: 5.5 PPM IN WATER FOR 1 HR): 88%, 19%, 78%, p<0.001 | tumour outcome (control, treated, inhibition, significance) (2000 PPM IN DIET FOR 17 WK BEGINNING POST CARCINOGEN TREATMENT (STUDY DURATION: 42 WK), Strain/Sex: RAINBOW TROUT/ MALE, Target Tissue: Type of Lesion: SWIM BLADDER: TUMOR, Dose [Carcinogen]: 5.5 PPM IN WATER FOR 1 HR): 15%, 6%, 60%, p<0.05 | tumour outcome (control, treated, inhibition, significance) (2000 PPM IN DIET FOR 17 WK BEGINNING POST CARCINOGEN TREATMENT (STUDY DURATION: 42 WK), Strain/Sex: RAINBOW TROUT/MALE, Target Tissue: Type of Lesion: LIVER: TUMOR, Dose [Carcinogen]: 5.5 PPM IN WATER FOR 1 HR): 5%, 10%, -100%, p<0.05 | tumour outcome (control, treated, inhibition, significance) (2000 PPM IN DIET FROM 1 WK PRIOR TO CARCINOGEN TREATMENT TO 3 D POST CARCINOGEN (STUDY DURATION: 42 WK), Strain/Sex: RAINBOW TROUT/ MALE, Target Tissue: Type of Lesion: SWIM-BLADDER: TUMOR, Dose [Carcinogen]: 5.5 PPM IN WATER FOR 1 HR): 15%, 7%, 53%, p<0.05 | tumour outcome (control, treated, inhibition, significance) (2000 PPM IN DIET FROM 1 WK PRIOR TO CARCINOGEN TREATMENT TO 3 D POST CARCINOGEN TREATMENT (STUDY DURATION: 42 WK), Strain/Sex: RAINBOW TROUT/ MALE, Target Tissue: Type of Lesion: LIVER: TUMOR, Dose [Carcinogen]: 5.5 PPM IN WATER FOR 1 HR): 5%, 3%, 40%, not significant
